Assay results from US5521173A, “Tricyclic benzazepine vasopressin antagonists” (American Home Products Corporation, priority 1995, dated 1996).

How the values were obtained:
[1] = system: Vasopressin V1; assay: Vasopressin V1 Antagonist Activity in Conscious Rats (vasopressin vasopressor response); format: in vivo, rat; details: 10 mg/kg iv; for Max % Inhibition: vasopressin vasopressor response
Description: Vasopressin V1 Antagonist Activity in Conscious Rats Conscious rats are restrained in a supine position with elastic tape. The area at the base of the tail is locally anesthetized by subcutaneous in filtration with 2% procaine (0.2 ml). Using aseptic technique the ventral caudal tail artery is isolated and a cannula made of PE 10 and 20 (heat-fused) tubing is passed into the lower abdominal aorta. The cannula is secured, heparinized (1000 i.u./cc), sealed and the wound closed with one or two stitches of Dexon 4-0. The caudal vein is also cannulated in the same manner for intravenous drug administration. The duration of the surgery is approximately 5 minutes. Additional local anesthesia (2% procaine or lidocaine) is provided as needed. The animals are placed in plastic restraining cages in an upright position. The cannula is attached to a Statham P23Db pressure transducer and pulsatile blood pressure is recorded. […] Percentage of antagonism by the compound is calculated using the pre-drug vasopressin vasopressor response as 100%. The results of this test on representative compounds of this invention in which the dose, the maximum % inhibition and the time in minutes, are shown in Table III.

[2] = target: T1, Human V2 Vasopressin Receptor (Homo sapiens, UniProt P30518); assay: Binding to Membranes of Mouse Fibroblast Cell Line (LV-2) Transfected with the cDNA Expressing the Human V2 Vasopressin Receptor; details: ** LV-2 cell membranes
T1 construct: expressed in transfected cells; host or cells: mouse fibroblast cell line LV-2
Description: (a) Membrane Preparation Flasks of 175 ml capacity, containing attached cells grown to confluence, are cleared of culture medium by aspiration. […] The content of all flasks is poured into a centrifuge tube and the cells pelleted at 300× g for 15 min. The Hank's based solution is aspirated off and the cells homogenized with a polytron at setting #6 for 10 sec in 10.0 mM Tris.HCl buffer, pH 7.4 containing 0.25M sucrose and 1.0 mM EDTA. The homogenate is centrifuged at 1500× g for 10 min to remove ghost membranes. The supernatant fluid is centrifuged at 100,000× g for 60 min to pellet the receptor protein. […] (b) Receptor Binding […] Non specific binding is assessed in the presence of 1.0 μM of unlabeled ligand, added in 20 μl volume. […] The radioactivity trapped on the filter disk by the ligand-receptor complex is assessed by liquid scintillation counting in a Packard LS Counter, with an efficiency of 65% for tritium. The data are analyzed for IC50 values by the LUNDON-2 program for competition (LUNDON SOFTWARE, Ohio).

[3] = target: T2, Vasopressin V1 receptor subtype in Human Platelet Membranes (Homo sapiens, UniProt P37288); assay: Binding to Vasopressin V1 receptor subtype in Human Platelet Membranes
T2 construct: tissue Hudson Valley Blood Services, Westchester Medical Center, Valhalla, N.Y; host or cells: human platelets (frozen platelet rich plasma)
Description: Radioligand Binding Experiments with Human Platelet Membranes
(a) Platelet Membrane Preparation
Frozen platelet rich plasma (PRP), (Platelet Source: Hudson Valley Blood Services, Westchester Medical Center, Valhalla, N.Y.) are thawed to room temperature. The tubes containing the PRP are centrifuged at 16,000×g for 10 min. at 4° C. and the supernatant fluid discarded. The platelets resuspended in an equal volume of 50.0 mM Tris.HCl, pH 7.5 containing 120 mM NaCl and 20.0 mM EDTA. The suspension is recentrifuged at 16,000× g for 10 min. This washing step is repeated one more time. The wash discarded and the lysed pellets homogenized in low ionic strength buffer of Tris.HCl, 5.0 mM, pH 7.5 containing 5.0 mM EDTA. The homogenate is centrifuged at 39,000× g for 10 min. The resulting pellet is resuspended in Tris.HCl buffer, 70.0 mM, pH 7.5 and recentrifuged at 39,000× g for 10 min. The final pellet is resuspended in 50.0 mM Tris.HCl buffer pH 7.4 containing 120 mM NaCl and 5.0 mM KCl to give 1.0-2.0 mg protein per ml of suspension.
(b) Binding to Vasopressin V1 receptor subtype in Human Platelet Membranes
In wells of a 96 well format microtiter plate, add 100 μl of 50.0 mM Tris.HCl buffer containing 0.2% BSA and a mixture of protease inhibitors (aprotinin, leupeptin etc.). Then add 20 μl of [^3 H]Ligand (Manning or Arg^8 Vasopressin), to give final concentrations ranging from 0.01 to 10.0 nM. Initiate the binding by adding 80.0 μl of platelet suspension (approx. 100 μg protein). Mix all reagents by pipetting the mixture up and down a few times. Non specific binding is measured in the presence of 1.0 µM of unlabeled ligand (Manning or Arg^8 Vasopressin). Let the mixture stand undisturbed at room temperature for ninety (90) min. Upon this time, rapidly filter off the incubate under vacuum suction over GF/B filters, using a Brandel Harvester. Determine the radioactivity caught on the filter disks by the addition of liquid scintillant and counting in a liquid scintillator.

[4] = system: Vasopressin V2; assay: Vasopressin V2 Antagonist Activity in Conscious Hydrated Rats; format: in vivo, rat; details: 10 mg/kg orally, AVP 0.4 μg/kg i.p.; for Osmolality: urine
Description: Two to four rats are used for each compound. One hour later, arginine vasopressin (AVP, antidiuretic hormore, ADH) dissolved in peanut oil is administered at 0.4 μg/kg intraperitoneally. Two rats in each test would not receive arginine vasopressin but only the vehicle (peanut oil) to serve as water-loading control. Twenty minutes later each rat is given 30 mL/kg of deionized water orally by gavage and is placed individually in a metabolic cage equipped with a funnel and a graduated glass cylinder to collect urine for four hours. Urine volume is measured and osmolality analyzed by use of a Fiske One-Ten osmometer (Fiske Assoc., Norwood, Mass., USA). Urinary sodium, potassium, and chloride are analyzed by use of ion-specific electrodes in a Beckman E3 (Electrolyte 3) Analyzer. In the following results, […] and decreased osmolality relative to AVP-control indicates activity.

T1 sequence (P30518 whole entry): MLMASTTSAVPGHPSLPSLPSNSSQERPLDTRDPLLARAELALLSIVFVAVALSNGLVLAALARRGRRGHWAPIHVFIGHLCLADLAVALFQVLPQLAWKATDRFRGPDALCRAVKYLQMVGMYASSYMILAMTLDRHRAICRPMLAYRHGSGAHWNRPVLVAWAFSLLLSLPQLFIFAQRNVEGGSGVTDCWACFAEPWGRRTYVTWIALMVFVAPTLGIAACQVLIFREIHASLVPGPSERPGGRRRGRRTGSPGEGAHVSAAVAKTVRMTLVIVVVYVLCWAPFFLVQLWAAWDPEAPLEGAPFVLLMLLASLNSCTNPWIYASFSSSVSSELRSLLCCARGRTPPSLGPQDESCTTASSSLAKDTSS
T2 sequence (P37288 whole entry): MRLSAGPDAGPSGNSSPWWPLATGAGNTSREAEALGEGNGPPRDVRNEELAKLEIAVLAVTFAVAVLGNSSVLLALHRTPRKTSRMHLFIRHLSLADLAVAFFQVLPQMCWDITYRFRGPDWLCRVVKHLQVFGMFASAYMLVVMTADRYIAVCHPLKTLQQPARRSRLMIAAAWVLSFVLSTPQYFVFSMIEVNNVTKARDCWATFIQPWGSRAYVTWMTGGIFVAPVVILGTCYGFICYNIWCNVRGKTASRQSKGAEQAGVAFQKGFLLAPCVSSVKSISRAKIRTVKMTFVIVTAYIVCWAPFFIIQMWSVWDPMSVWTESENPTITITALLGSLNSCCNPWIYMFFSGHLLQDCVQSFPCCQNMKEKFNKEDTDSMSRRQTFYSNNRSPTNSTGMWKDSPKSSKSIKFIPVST

SMILES | Time (of maximum % inhibition) [1] [min] | Max % Inhibition [1] [%] | IC50 [2] [nM] | IC50 [3] [nM] | Urine Volume [4] [ml/4 hrs] | Osmolality [4] [mOsm/kg]
O=C(c1ccc(-c2ccccc2)cc1)N1Cc2ccnn2Cc2ccccc21 [Example 7, 5-([1,1'-Biphenyl]-4-ylcarbonyl)-5,10-dihydro-4H-pyrazolo[5,1-c][1,4]benzodiazepine] | 30 | 90 | 1700 | 14 | 7.5 | 1005
O=C(c1ccc(-c2ccccc2)cc1)N1Cc2cccn2Cc2ccccc21 [Example 19, 10-([1,1'-Biphenyl]-4-ylcarbonyl)-10,11-dihydro-5H-pyrrolo[2,1-c][1,4]benzodiazepine] | 30 | 60 | 390 | 2.9 | 3.5 | 1598
O=C(c1ccc(-c2cc(F)cc(F)c2)cc1)N1Cc2cccn2Cc2ccccc21 [Example 3, 10,11-Dihydro-10-[4-(3,5-difluorophenyl)benzoyl]-5H-pyrrolo[2,1-c][1,4]benzodiazepine] | 30 | 92 | 2500 | 85 | 5.9 | 1205
O=C(c1ccc(-c2ccccn2)cc1)N1Cc2cccn2Cc2ccccc21 [Example 9, 10,11-Dihydro-10-[4-(2-pyridinyl)benzoyl]-5H-pyrrolo[2,1-c][1,4]benzodiazepine] | 30 | 70 |  |  | 8.3 | 857
O=C(c1ccc(-c2ccccc2C(F)(F)F)cc1)N1Cc2cccn2Cc2ccccc21 [Example 8] |  |  |  |  | 8 | 887
